Reference: PubChem BioAssay AID463081 (The Scripps Research Institute Molecular Screening Center, 2010)
pIC50: −log10 of the molar value.

Target: Glutathione S-transferase omega-1 (Homo sapiens) (UniProt P78417)
Assay: GSTO1 inhibitor potency, recombinant enzyme, late-stage follow-up, biochemical, SE-Rh probe, in-gel fluorescence, powder samples (AID 463081)
Conditions: recombinant GSTO1, SE-Rh probe labeling

Chain of Glutathione S-transferase omega-1 (Homo sapiens) (P78417 whole entry, looked up): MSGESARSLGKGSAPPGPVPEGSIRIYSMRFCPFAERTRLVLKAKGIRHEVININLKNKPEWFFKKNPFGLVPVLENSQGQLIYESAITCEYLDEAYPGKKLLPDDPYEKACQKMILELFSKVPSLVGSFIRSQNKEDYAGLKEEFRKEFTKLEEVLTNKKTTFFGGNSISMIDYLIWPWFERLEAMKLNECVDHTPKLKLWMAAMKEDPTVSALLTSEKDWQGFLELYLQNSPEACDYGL

pIC50: 7.66
SMILES: COc1ccc(C(C(=O)NC2CCCCC2)N(C(=O)CCl)c2ccc(Cl)cc2)cc1 (stereo unspecified)
